Values after ≈ are worked out from the molar mass of the structure shown.
Experiments:
VZV strain Ellen = test: VZV Antiviral (ELISA) assay; type: cell-based; conditions: for IC50 (ug/ml) VZV / % inhibition 10 ug/ml VZV: VZV strain Ellen in HFF cells; for % inhibition 10 ug/ml VZV: at 10 ug/ml; for IC50: Human alphaherpesvirus 3, VZV strain Ellen in HFF cells, read-out: IC50 (ug/ml) VZV; for inhibition at 10 µg/mL: Human alphaherpesvirus 3, read-out: % inhibition 10 ug/ml VZV, at 10 ug/ml, VZV strain Ellen in HFF cells
Summary of the method: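 Cell-based VZV (Ellen) spread assay in HFF, 3-day compound exposure in 2% FBS medium. Viral antigen quantified by fluorescent β-galactosidase ELISA; IC50 from inhibition of signal.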

HSV-1 = test: HSV Antiviral (ELISA) assay; type: cell-based; conditions: for IC50 (ug/ml) HSV: HSV-1 in Vero cells; for IC50: Human alphaherpesvirus 1, HSV-1 in Vero cells, read-out: IC50 (ug/ml) HSV
Summary of the method: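 Replication measured as glycoprotein D signal in fixed cells: anti-gD antibody plus β-galactosidase-linked secondary, fluorogenic substrate read at 365/450 nm. Vero cells (2% FBS DMEM) received compound 30 min pre-infection, HSV-1 MOI 0.006, ~24 h incubation; IC50 relative to no-compound fluorescence.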

[1] = system: HCMV recombinant mutant virus (RV145); test: HCMV microtiter plate assay (beta-glucuronidase reporter); type: cell-based, Human Cytomegalovirus; conditions: for IC50 (ug/ml) HCMV: HCMV in human foreskin fibroblasts; for IC50: Human betaherpesvirus 5, Fibroblast, read-out: IC50 (ug/ml) HCMV
Summary of the method: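 Replication was read out as virus-encoded β-glucuronidase activity, measured with a chromogenic or fluorogenic glucuronide substrate in cell lysates at 96 h post-infection. Infection of human foreskin fibroblasts with RV145 took place with compound present. IC50 was derived from a range of inhibitor amounts.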

| SMILES | IC50 (ug/ml) VZV (VZV strain Ellen) [µg/mL] | IC50 (ug/ml) HSV (HSV-1) [µg/mL] | IC50 (ug/ml) HCMV [1] [µg/mL] | % inhibition 10 ug/ml VZV (VZV strain Ellen) [%] | IC50 (VZV strain Ellen) [µg/mL] | IC50 (HSV-1) [µg/mL] | IC50 [1] [µg/mL] | inhibition at 10 µg/mL (VZV strain Ellen) [%] |
| --- | --- | --- | --- | --- | --- | --- | --- | --- |
| Cc1ccc(CCNC(=S)Nc2ccc(NC(=O)c3ccco3)cc2)cc1 [Example 605] | 10 (≈ 26.4 µM) | >10 | 0.062 (≈ 0.163 µM) | – | – | – | – | – |
| CN(C)c1c(Cl)cccc1NC(=S)Nc1ccc(NC(=O)c2ccco2)cc1 [Example 505] | 8 (≈ 19.3 µM) | 10 (≈ 24.1 µM) | 0.2 (≈ 0.482 µM) | 79 | – | – | – | – |
| O=C(Nc1ccc(NC(=S)NCc2ccc(Cl)c(Cl)c2)cc1)c1csnn1 [Example 537] | 10 (≈ 22.8 µM) | 9 (≈ 20.5 µM) | 0.003 (≈ 0.00684 µM) | – | – | – | – | – |
| O=C(Nc1ccc(NC(=S)Nc2cc(Cl)cc(Cl)c2)cc1)c1csc(-c2ccccc2)n1 [Example 1142, 2-Phenyl-thiazole-4-carboxylic acid {4-[3-(3,5-dichloro-phenyl)-thioureido]-phenyl}-amide] | – | – | – | – | > 10 | > 10 | 1.8 (≈ 3.6 µM) | – |
| COc1cc(OC)c(NC(=S)Nc2ccc(NC(=O)c3cncc4ccccc34)cc2)cc1Cl [Example 172] | >10 | >10 | >10 | 25 | – | – | – | – |
| O=C(Nc1ccc(NC(=S)Nc2cccc(F)c2)cc1)c1ccco1 [Example 1007, Furan-2-carboxylic acid {4-[3-(3-fluoro-phenyl)-thioureido]-phenyl} -amide] | – | – | – | – | > 10 | > 10 | 0.11 (≈ 0.31 µM) | 18 |
| NC(=O)c1cccc(NC(=S)Nc2ccc(NC(=O)c3ccco3)cc2)c1 [Example 1004, Furan-2-carboxylic acid {4-[3-(3-carbamoyl-phenyl)-thioureido]-phenyl} -amide] | – | – | – | – | > 10 | > 10 | 0.5 (≈ 1.31 µM) | 36 |
| CC(NC(=S)Nc1ccc(NC(=O)c2csnn2)cc1)c1ccccc1 (centres unmarked) [Example 588] | 0.36 (≈ 0.939 µM) | >10 | 0.03 (≈ 0.0782 µM) | – | – | – | – | – |
| O=C(Nc1ccc(CNC(=S)Nc2ccc(Cl)c(C(F)(F)F)c2)cc1)c1csnn1 [Example 631] | 6 (≈ 12.7 µM) | 6 (≈ 12.7 µM) | 0.15 (≈ 0.318 µM) | – | – | – | – | – |
| CN(c1ccc(NC(=S)Nc2ccc(NC(=O)c3ccco3)cc2)cc1Cl)C1CCN(Cc2ccccc2)C1 (centres unmarked) [Example 331] | 5 (≈ 8.93 µM) | 1.8 (≈ 3.21 µM) | 2 (≈ 3.57 µM) | 98 | – | – | – | – |
| CS(=O)(=O)Nc1ccc(NC(=S)Nc2ccc(NC(=O)c3ccco3)cc2)cc1Cl [Example 371] | >10 | >10 | >10 | 45 | – | – | – | – |
| COc1cc(OC)c(NC(=S)Nc2ccc(NC(=O)c3nccc4ccccc34)cc2)cc1Cl [Example 158] | >15 | 4 (≈ 8.11 µM) | >10 | 52 | – | – | – | – |
| O=C(Nc1ccc(NC(=S)Nc2cc(C(F)(F)F)cc(C(F)(F)F)c2)cc1)c1ccco1 [Example 516] | >10 | >10 | 0.04 (≈ 0.0845 µM) | 7 | – | – | – | – |
| CC(C)c1nc(C(=O)Nc2ccc(NC(=S)Nc3ccc(Cl)c(C(F)(F)F)c3)cc2)cs1 [Example 1130, 2-Isopropyl-thiazole-4-carboxylic acid {4-[3-(4-chloro-3-trifluoromethyl-phenyl)-thioureido]-phenyl}-amide] | – | – | – | – | 5.5 (≈ 11 µM) | 2 (≈ 4.01 µM) | 2 (≈ 4.01 µM) | – |
| O=C(Nc1ccc(NC(=S)Nc2ccc(C(F)(F)F)c(Cl)c2)cc1)c1csnn1 [Example 960, [1,2,3]Thiadiazole-4-carboxylic acid {4-[3-(3-chloro-4-trifluoromethyl-phenyl)-thioureido]-phenyl}-amide] | – | – | – | – | > 10 | > 10 | 0.03 (≈ 0.0655 µM) | 58 |
| COc1cc(OC)c(NC(=S)Nc2ccc(NC(=O)c3ccco3)cc2)cc1Cl [Example 170] | >10 | >10 | 0.2 (≈ 0.463 µM) | 32 | – | – | – | – |
| Cc1ccc(NC(=S)Nc2ccc(NC(=O)c3ccccn3)cc2)cc1Cl [Example 236] | >10 | >10 | 0.7 (≈ 1.76 µM) | 40 | – | – | – | – |

Source: patent US6426355B1, “Heterocyclic carboxamide-containing thiourea inhibitors of herpes viruses containing phenylenediamine group” (American Home Products, priority 1998, dated 2002)
